In brackets after ≈: the same amount, converted by molar mass. Where a SMILES comes first, the peptide text is derived from it.
Legend:
Staphylococcus aureus [1] = test: Antibacterial activity against Staphylococcus aureus ATCC 25923 incubated for 18 to 24 hrs by broth microdilution method; type: functional
Staphylococcus aureus [2] = test: Antibacterial activity against Staphylococcus aureus ATCC 29213 incubated for 18 to 24 hrs by broth microdilution method; type: functional
Salmonella typhimurium = test: Antibacterial activity against Salmonella enterica serovar typhimurium C77-31 incubated for 18 to 24 hrs by broth microdilution method; type: functional, Salmonella enterica subsp. enterica serovar Typhimurium
Escherichia coli [3] = test: Antibacterial activity against Escherichia coli UB1005 incubated for 18 to 24 hrs by broth microdilution method; type: functional
Escherichia coli [4] = test: Antibacterial activity against Escherichia coli ATCC 25922 incubated for 18 to 24 hrs by broth microdilution method; type: functional
[5] = system: Staphylococcus epidermidis; test: Antibacterial activity against Staphylococcus epidermidis ATCC 12228 incubated for 18 to 24 hrs by broth microdilution method; type: functional
Escherichia coli [6] = test: Antibacterial activity against Escherichia coli 20411 clinical isolate incubated for 18 to 24 hrs by broth microdilution method; type: functional
Acinetobacter baumannii [7] = test: Antibacterial activity against Acinetobacter baumannii AB1901 clinical isolate incubated for 18 to 24 hrs by broth microdilution method; type: functional
Acinetobacter baumannii [8] = test: Antibacterial activity against Acinetobacter baumannii AB1902 clinical isolate incubated for 18 to 24 hrs by broth microdilution method; type: functional
Pseudomonas aeruginosa = test: Antibacterial activity against Pseudomonas aeruginosa 25349 clinical isolate incubated for 18 to 24 hrs by broth microdilution method; type: functional
Staphylococcus aureus [9] = test: Antibacterial activity against Staphylococcus aureus 11011 incubated for 18 to 24 hrs by broth microdilution method; type: functional
Erythrocyte = test: Haemolytic activity in human erythrocytes assessed as lowest concentration causing 5% hemolysis after 1 hr; type: ADME, cell-based
[10] = Therapeutic index, ratio of MHC for human RBC to geometric mean of peptide MIC for Escherichia coli ATCC 25922; type: toxicity; details: pooled result: one value given for 6 cell lines, strains, targets or settings, read-out: TI
[11] = Cytotoxicity against mouse RAW264.7 cells assessed as cell survival at < 32 uM after 24 hrs by MTT assay; type: cell-based; details: read-out: Activity

Structure (SMILES)	MIC (Staphylococcus aureus [1])	MIC (Staphylococcus aureus [2])	MIC (Salmonella typhimurium)	MIC (Escherichia coli [3])	MIC (Escherichia coli [4])	MIC [5]	MIC (Escherichia coli [6])	MIC (Acinetobacter baumannii [7])	MIC (Acinetobacter baumannii [8])	MIC (Pseudomonas aeruginosa)	MIC (Staphylococcus aureus [9])	MHC (Erythrocyte)	selectivity ratio [10]	viability at 24 h [11]
CN[C@H](CC(C)C)C(=O)N[C@H]1C(=O)N[C@@H](CC(N)=O)C(=O)N[C@H]2C(=O)N[C@H]3C(=O)N[C@H](C(=O)N[C@H](C(=O)O)c4cc(O)cc(O)c4-c4cc3ccc4O)[C@H](O)c3ccc(c(Cl)c3)Oc3cc2cc(c3O[C@@H]2O[C@H](CO)[C@@H](O)[C@H](O)[C@H]2O[C@H]2C[C@](C)(N)[C@H](O)[C@H](C)O2)Oc2ccc(cc2Cl)[C@H]1O [VANCOMYCIN]	0.5 µM (≈ 0.725 µg/mL)	0.5 µM (≈ 0.725 µg/mL)	128 µM (≈ 186 µg/mL)	128 µM (≈ 186 µg/mL)	128 µM (≈ 186 µg/mL)	0.5 µM (≈ 0.725 µg/mL)	64 µM (≈ 92.8 µg/mL)	> 128 µM	> 128 µM	> 128 µM	0.25 µM (≈ 0.362 µg/mL)	–	–	–
CC[C@H]1OC(=O)[C@H](C)[C@@H](O[C@H]2C[C@@](C)(OC)[C@@H](O)[C@H](C)O2)[C@H](C)[C@@H](O[C@@H]2O[C@H](C)C[C@H](N(C)C)[C@H]2O)[C@](C)(O)C[C@@H](C)C(=O)[C@H](C)[C@@H](O)[C@]1(C)O [ERYTHROMYCIN]	0.5 µM (≈ 0.367 µg/mL)	0.5 µM (≈ 0.367 µg/mL)	32 µM (≈ 23.5 µg/mL)	32 µM (≈ 23.5 µg/mL)	32 µM (≈ 23.5 µg/mL)	0.25 µM (≈ 0.183 µg/mL)	64 µM (≈ 47 µg/mL)	> 128 µM	> 128 µM	128 µM (≈ 93.9 µg/mL)	1 µM (≈ 0.734 µg/mL)	–	–	–
C[C@@H](O)[C@H](NC(=O)[C@H](CCCCN)NC(=O)[C@H](Cc1c[nH]c2ccccc12)NC(=O)[C@H](CCCNC(=N)N)NC(=O)[C@H](Cc1ccccc1)NC(=O)[C@H](CCCNC(=N)N)NC(=O)[C@@H](N)Cc1c[nH]c2ccccc12)C(=O)N[C@@H](CCCNC(=N)N)C(=O)N[C@@H](Cc1c[nH]c2ccccc12)C(=O)N[C@@H](CCCNC(=N)N)C(=O)N[C@@H](Cc1ccccc1)C(=O)N[C@@H](CCCCN)C(N)=O (H-WRFRWKTRWRFK-NH2)	2 µM (≈ 3.7 µg/mL)	2 µM (≈ 3.7 µg/mL)	2 µM (≈ 3.7 µg/mL)	4 µM (≈ 7.41 µg/mL)	4 µM (≈ 7.41 µg/mL)	2 µM (≈ 3.7 µg/mL)	2 µM (≈ 3.7 µg/mL)	2 µM (≈ 3.7 µg/mL)	4 µM (≈ 7.41 µg/mL)	8 µM (≈ 14.8 µg/mL)	2 µM (≈ 3.7 µg/mL)	> 128 µM	102	> 90%
CC(C)C[C@H](NC(=O)[C@H](CCCCN)NC(=O)[C@H](Cc1c[nH]c2ccccc12)NC(=O)[C@H](CCCCN)NC(=O)[C@H](CC(C)C)NC(=O)[C@H](CCCCN)NC(=O)[C@H](Cc1c[nH]c2ccccc12)NC(=O)[C@H](CCCCN)NC(=O)[C@H](CC(C)C)NC(=O)[C@H](CCCCN)NC(=O)[C@@H](N)Cc1c[nH]c2ccccc12)C(=O)N[C@@H](CCCCN)C(N)=O (H-WKLKWKLKWKLK-NH2)	2 µM (≈ 3.37 µg/mL)	2 µM (≈ 3.37 µg/mL)	2 µM (≈ 3.37 µg/mL)	4 µM (≈ 6.74 µg/mL)	4 µM (≈ 6.74 µg/mL)	2 µM (≈ 3.37 µg/mL)	2 µM (≈ 3.37 µg/mL)	2 µM (≈ 3.37 µg/mL)	4 µM (≈ 6.74 µg/mL)	4 µM (≈ 6.74 µg/mL)	2 µM (≈ 3.37 µg/mL)	128 µM	50.8	> 90%
CC(C)[C@H](NC(=O)[C@H](CCCCN)NC(=O)[C@H](Cc1c[nH]c2ccccc12)NC(=O)[C@H](CCCCN)NC(=O)[C@@H](NC(=O)[C@H](CCCCN)NC(=O)[C@H](Cc1c[nH]c2ccccc12)NC(=O)[C@H](CCCCN)NC(=O)[C@@H](NC(=O)[C@H](CCCCN)NC(=O)[C@@H](N)Cc1c[nH]c2ccccc12)C(C)C)C(C)C)C(=O)N[C@@H](CCCCN)C(N)=O (H-WKVKWKVKWKVK-NH2)	2 µM (≈ 3.28 µg/mL)	1 µM (≈ 1.64 µg/mL)	2 µM (≈ 3.28 µg/mL)	2 µM (≈ 3.28 µg/mL)	2 µM (≈ 3.28 µg/mL)	2 µM (≈ 3.28 µg/mL)	1 µM (≈ 1.64 µg/mL)	2 µM (≈ 3.28 µg/mL)	1 µM (≈ 1.64 µg/mL)	4 µM (≈ 6.57 µg/mL)	2 µM (≈ 3.28 µg/mL)	> 128 µM	144	> 90%

Further lines, with some results ahead:

MIC (Staphylococcus aureus [1])	MIC (Staphylococcus aureus [2])	MIC (Salmonella typhimurium)	MIC (Escherichia coli [3])	MIC (Escherichia coli [4])	MIC [5]	MIC (Escherichia coli [6])	MIC (Acinetobacter baumannii [7])	MIC (Acinetobacter baumannii [8])	MIC (Pseudomonas aeruginosa)	MIC (Staphylococcus aureus [9])	Structure (SMILES)	MHC (Erythrocyte)	selectivity ratio [10]	viability at 24 h [11]
8 µM (≈ 14.5 µg/mL)	4 µM (≈ 7.26 µg/mL)	4 µM (≈ 7.26 µg/mL)	4 µM (≈ 7.26 µg/mL)	4 µM (≈ 7.26 µg/mL)	8 µM (≈ 14.5 µg/mL)	2 µM (≈ 3.63 µg/mL)	32 µM (≈ 58.1 µg/mL)	32 µM (≈ 58.1 µg/mL)	> 64 µM	4 µM (≈ 7.26 µg/mL)	C[C@@H](O)[C@H](NC(=O)[C@H](CCCNC(=N)N)NC(=O)[C@H](Cc1c[nH]c2ccccc12)NC(=O)[C@H](CCCNC(=N)N)NC(=O)[C@@H](NC(=O)[C@H](CCCNC(=N)N)NC(=O)[C@H](Cc1c[nH]c2ccccc12)NC(=O)[C@H](CCCNC(=N)N)NC(=O)[C@@H](NC(=O)[C@H](CCCNC(=N)N)NC(=O)[C@@H](N)Cc1c[nH]c2ccccc12)[C@@H](C)O)[C@@H](C)O)C(=O)N[C@@H](CCCNC(=N)N)C(N)=O (H-WRTRWRTRWRTR-NH2)	> 128 µM	50.8	> 90%
2 µM (≈ 3.68 µg/mL)	2 µM (≈ 3.68 µg/mL)	4 µM (≈ 7.36 µg/mL)	4 µM (≈ 7.36 µg/mL)	4 µM (≈ 7.36 µg/mL)	2 µM (≈ 3.68 µg/mL)	2 µM (≈ 3.68 µg/mL)	4 µM (≈ 7.36 µg/mL)	4 µM (≈ 7.36 µg/mL)	16 µM (≈ 29.4 µg/mL)	2 µM (≈ 3.68 µg/mL)	CC(C)C[C@H](NC(=O)[C@H](CCCNC(=N)N)NC(=O)[C@H](Cc1c[nH]c2ccccc12)NC(=O)[C@H](CCCNC(=N)N)NC(=O)[C@@H](NC(=O)[C@H](CCCNC(=N)N)NC(=O)[C@H](Cc1c[nH]c2ccccc12)NC(=O)[C@H](CCCNC(=N)N)NC(=O)[C@H](CC(C)C)NC(=O)[C@H](CCCNC(=N)N)NC(=O)[C@@H](N)Cc1c[nH]c2ccccc12)[C@@H](C)O)C(=O)N[C@@H](CCCNC(=N)N)C(N)=O (H-WRLRWRTRWRLR-NH2)	> 128 µM	90.5	> 90%
1 µM (≈ 1.95 µg/mL)	1 µM (≈ 1.95 µg/mL)	2 µM (≈ 3.91 µg/mL)	4 µM (≈ 7.82 µg/mL)	8 µM (≈ 15.6 µg/mL)	2 µM (≈ 3.91 µg/mL)	4 µM (≈ 7.82 µg/mL)	2 µM (≈ 3.91 µg/mL)	2 µM (≈ 3.91 µg/mL)	8 µM (≈ 15.6 µg/mL)	2 µM (≈ 3.91 µg/mL)	N=C(N)NCCC[C@H](NC(=O)[C@H](Cc1ccccc1)NC(=O)[C@H](CCCNC(=N)N)NC(=O)[C@H](Cc1c[nH]c2ccccc12)NC(=O)[C@H](CCCNC(=N)N)NC(=O)[C@H](Cc1ccccc1)NC(=O)[C@H](CCCNC(=N)N)NC(=O)[C@H](Cc1c[nH]c2ccccc12)NC(=O)[C@H](CCCNC(=N)N)NC(=O)[C@H](Cc1ccccc1)NC(=O)[C@H](CCCNC(=N)N)NC(=O)[C@@H](N)Cc1c[nH]c2ccccc12)C(N)=O (H-WRFRWRFRWRFR-NH2)	64 µM	28.6	> 90%
2 µM (≈ 3.51 µg/mL)	1 µM (≈ 1.75 µg/mL)	2 µM (≈ 3.51 µg/mL)	2 µM (≈ 3.51 µg/mL)	4 µM (≈ 7.02 µg/mL)	2 µM (≈ 3.51 µg/mL)	1 µM (≈ 1.75 µg/mL)	2 µM (≈ 3.51 µg/mL)	4 µM (≈ 7.02 µg/mL)	4 µM (≈ 7.02 µg/mL)	2 µM (≈ 3.51 µg/mL)	CC(C)[C@H](NC(=O)[C@H](CCCNC(=N)N)NC(=O)[C@H](Cc1c[nH]c2ccccc12)NC(=O)[C@H](CCCNC(=N)N)NC(=O)[C@@H](NC(=O)[C@H](CCCCN)NC(=O)[C@H](Cc1c[nH]c2ccccc12)NC(=O)[C@H](CCCNC(=N)N)NC(=O)[C@@H](NC(=O)[C@H](CCCNC(=N)N)NC(=O)[C@@H](N)Cc1c[nH]c2ccccc12)C(C)C)C(C)C)C(=O)N[C@@H](CCCCN)C(N)=O (H-WRVRWKVRWRVK-NH2)	> 128 µM	128	> 90%
2 µM (≈ 3.7 µg/mL)	1 µM (≈ 1.85 µg/mL)	2 µM (≈ 3.7 µg/mL)	2 µM (≈ 3.7 µg/mL)	4 µM (≈ 7.41 µg/mL)	2 µM (≈ 3.7 µg/mL)	2 µM (≈ 3.7 µg/mL)	2 µM (≈ 3.7 µg/mL)	4 µM (≈ 7.41 µg/mL)	4 µM (≈ 7.41 µg/mL)	1 µM (≈ 1.85 µg/mL)	CC(C)C[C@H](NC(=O)[C@H](CCCNC(=N)N)NC(=O)[C@H](Cc1c[nH]c2ccccc12)NC(=O)[C@H](CCCNC(=N)N)NC(=O)[C@H](CC(C)C)NC(=O)[C@H](CCCNC(=N)N)NC(=O)[C@H](Cc1c[nH]c2ccccc12)NC(=O)[C@H](CCCNC(=N)N)NC(=O)[C@H](CC(C)C)NC(=O)[C@H](CCCNC(=N)N)NC(=O)[C@@H](N)Cc1c[nH]c2ccccc12)C(=O)N[C@@H](CCCNC(=N)N)C(N)=O (H-WRLRWRLRWRLR-NH2)	> 128 µM	128	> 90%
2 µM (≈ 3.62 µg/mL)	1 µM (≈ 1.81 µg/mL)	4 µM (≈ 7.24 µg/mL)	2 µM (≈ 3.62 µg/mL)	4 µM (≈ 7.24 µg/mL)	2 µM (≈ 3.62 µg/mL)	2 µM (≈ 3.62 µg/mL)	2 µM (≈ 3.62 µg/mL)	2 µM (≈ 3.62 µg/mL)	4 µM (≈ 7.24 µg/mL)	1 µM (≈ 1.81 µg/mL)	CC(C)[C@H](NC(=O)[C@H](CCCNC(=N)N)NC(=O)[C@H](Cc1c[nH]c2ccccc12)NC(=O)[C@H](CCCNC(=N)N)NC(=O)[C@@H](NC(=O)[C@H](CCCNC(=N)N)NC(=O)[C@H](Cc1c[nH]c2ccccc12)NC(=O)[C@H](CCCNC(=N)N)NC(=O)[C@@H](NC(=O)[C@H](CCCNC(=N)N)NC(=O)[C@@H](N)Cc1c[nH]c2ccccc12)C(C)C)C(C)C)C(=O)N[C@@H](CCCNC(=N)N)C(N)=O (H-WRVRWRVRWRVR-NH2)	> 128 µM	114	> 90%

Reference: ChEMBL document CHEMBL4311942, “Design of Trp-Rich Dodecapeptides with Broad-Spectrum Antimicrobial Potency and Membrane-Disruptive Mechanism” (J Med Chem, 2019)
